Laboratory results as given in article PMC3849272, “Strong cellulase inhibitors from the hydrothermal pretreatment of wheat straw” (Biotechnology for Biofuels, 2013).

Assays:
TrCel7B = biological target: T1, TrCel7B (Trichoderma reesei, UniProt P07981); experiment: inhibition of 4-methylumbelliferyl-beta-lactoside hydrolysis, fluorescence, initial rates; type: biochemical; settings: 20 μM MUL, 10 nM enzyme, 50 mM sodium acetate pH 5.0, BSA 0.1 g/l, 35°C
T1 construct: gene egl1; native enzyme purified from culture filtrate of T. reesei QM 9414; secreted, signal peptide removed
T1 sequence (P07981 23-459): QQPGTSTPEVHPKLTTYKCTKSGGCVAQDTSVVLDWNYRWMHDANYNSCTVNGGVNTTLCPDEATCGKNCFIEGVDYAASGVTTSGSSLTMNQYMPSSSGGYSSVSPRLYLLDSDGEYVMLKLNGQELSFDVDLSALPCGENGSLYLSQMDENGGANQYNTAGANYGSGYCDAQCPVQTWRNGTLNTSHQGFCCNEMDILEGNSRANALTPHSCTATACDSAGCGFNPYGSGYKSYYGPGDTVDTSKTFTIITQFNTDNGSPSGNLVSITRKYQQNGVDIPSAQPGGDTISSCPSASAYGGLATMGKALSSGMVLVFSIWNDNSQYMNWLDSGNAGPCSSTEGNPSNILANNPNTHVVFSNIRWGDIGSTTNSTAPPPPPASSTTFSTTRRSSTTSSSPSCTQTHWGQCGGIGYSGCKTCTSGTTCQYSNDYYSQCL

TrCel7A = biological target: T2, TrCel7A (Trichoderma reesei, UniProt P62694); experiment: as above; type: biochemical; settings: 5 μM MUL, 10 nM enzyme, 50 mM sodium acetate pH 5.0, BSA 0.1 g/l, 35°C
T2 construct: gene cbh1; native enzyme purified from culture filtrate of T. reesei QM 9414; secreted, signal peptide removed; about 50 kDa
T2 sequence (P62694 18-513): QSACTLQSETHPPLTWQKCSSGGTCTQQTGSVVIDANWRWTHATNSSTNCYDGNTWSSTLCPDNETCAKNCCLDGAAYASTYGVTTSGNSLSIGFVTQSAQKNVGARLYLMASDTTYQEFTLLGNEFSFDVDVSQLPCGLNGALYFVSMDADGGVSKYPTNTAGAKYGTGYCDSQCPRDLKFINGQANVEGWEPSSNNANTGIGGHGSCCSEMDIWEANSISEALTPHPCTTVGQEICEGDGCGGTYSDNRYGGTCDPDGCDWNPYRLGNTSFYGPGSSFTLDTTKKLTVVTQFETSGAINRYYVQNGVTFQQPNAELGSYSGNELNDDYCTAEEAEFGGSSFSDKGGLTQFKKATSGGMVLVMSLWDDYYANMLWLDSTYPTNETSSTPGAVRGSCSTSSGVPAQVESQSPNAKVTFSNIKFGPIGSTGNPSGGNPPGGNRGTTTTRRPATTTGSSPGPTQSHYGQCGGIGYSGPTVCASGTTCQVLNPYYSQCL

IC50 (TrCel7B): 8.9 ± 0.4 mM
IC50 (TrCel7A): 0.036 ± 0.006 mM
Compound: OC[C@H]1O[C@@H](O[C@H]2[C@H](O)[C@@H](O)C(O)O[C@@H]2CO)[C@H](O)[C@@H](O)[C@@H]1O (some centres unmarked) [cellobiose]
